Data on 1 substance can be found in US20230338473A1, “AN[…] TARGETING IL-2, IL-9, AND IL-15 SIGNALING FOR THE TREATMENT OF CYTOK[…] AND CYTOKINE STORM ASSOCIATED DISORDERS” (priority 2020, published 2023).

The subject of one experiment is STAT5. The experiment is described as follows: IL-15-mediated tyrosine phosphorylation of STAT5 in PT-18β cells (immunoblot). The format is cell-based. The settings on record: PT-18β cells stimulated by IL-15, anti-phospho-STAT5 immunoblot. The text has this:
In addition to stimulating cellular proliferation, binding of the γc-cytokines to their receptors causes a diverse array of intracellular events. (Rochman et al., 2009, Nat Rev Immunol 9:480-90; Pesu et al., 2005, Immunol Rev 203:127-42). Immediately after the cytokine binds to its receptor, a tyrosine kinase called Jak3 (Janus-kinase 3) is recruited to the receptor at the plasma membrane. This kinase phosphorylates the tyrosine residues of multiple proteins including the γc-subunit, STAT5 (Signal Transducer and Activator of Transcription 5) and subunits of the PI3 (Phosphatidylinositol 3) kinase. Among these, the phosphorylation of STAT5 has been implicated in many studies as being linked to the proliferation of cells initiated by the γc-cytokine (Hennighausen and Robinson, 2008, Genes Dev 22:711-21). In accordance with these published data, whether or not the BNZ-γ peptide inhibits the tyrosine phosphorylation of STAT5 molecule in PT-18β cells stimulated by IL-15 was examined (results shown in FIG. 4).
PT-18β cells were stimulated by IL-15 in the presence or absence of BNZ-γ peptide. Cytoplasmic proteins were extracted from the cells according to a conventional method (Tagaya et al., 1996, EMBO J 15:4928-39). […]
A general note: In western blotting, separated proteins are transferred to a membrane and probed.

Experiment [1] concerns pro-inflammatory cytokines IL-6, IFN-γ, TNF-α, and MCP-1. The settings on record: mouse, in vivo.
For another experiment, the system named is IL-3. The experiment is described as follows: PT-18β proliferation assay (WST-1), IL-3 negative control. The experiment is classed as cell-based. The settings on record: PT-18β cells, 1 nM cytokine, BNZ-γ as 1:20 or 1:60 dilution of HEK293T supernatant, 2 days. The text has this: (§1) For each of the six γc-cytokines, indicator cell lines: NK92, a human NK cell line NK92 available by American Type Culture Collection (ATCC) (catalog # CRL-2407), CTLL-2, a murine CD8 T cells line available from ATCC, and PT-18, a murine mast cell line and its subclone PT-18β, is transfected with human IL-2Rβ gene to make the cells responsive to IL-2 and IL-15 (Tagaya et al., 1996, EMBO J. 15:4928-39), and is used to quantitatively determine the γc-cytokine’s growth-promoting activity (See Current protocols in Immunology from Wiley and Sons for a methodological reference).
Sequence of IL-3 (P01586 27-166): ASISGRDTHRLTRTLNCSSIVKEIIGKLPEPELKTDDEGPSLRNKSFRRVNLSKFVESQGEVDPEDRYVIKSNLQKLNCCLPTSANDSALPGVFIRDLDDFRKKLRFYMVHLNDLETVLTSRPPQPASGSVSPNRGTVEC
(§2) Once the appropriate doses of the cytokine that yield the 50% and 95% maximum response from the indicator cell line is determined, various concentrations (ranging from 1 pM to 10 µM) of the purified or synthesized custom derivative peptide is added to each well containing the cytokine and indicator cells. The reduction in light absorbance at 450 nm is used as an indicator of inhibition of cytokine-stimulated cellular proliferation. Typically, the cells are stimulated by the cytokines such that the absorbance of the well containing indicator cell line and the cytokine is between 2.0 and 3.0, which is reduced to a range of 0.1 to 0.5 by the addition of inhibitory peptides. […]
(§3) The growth-responses of the cells were determined 2 days after the introduction of BNZ-γpeptide and the cytokine using the WST-1 assay. […]

Experiment [2] relates to NSG mice transplanted with huPBMCs and infected with LCMV. The settings on record: mouse, in vivo.
A further experiment concerns IL-15. Briefly: PT-18β proliferation assay (WST-1), IL-15. The settings on record: PT-18β cells, 1 nM cytokine, BNZ-γ as 1:20 or 1:60 dilution of HEK293T supernatant, 2 days. The format is cell-based.
Description: as §1, §2, §3
(In general: Tetrazolium assays rely on reduction of a dye to a coloured formazan, in cell work by metabolically active cells.)

Another experiment concerns IL-4. Briefly: PT-18β proliferation assay (WST-1), IL-4. The experiment is classed as cell-based. The settings on record: PT-18β cells, 1 nM cytokine, BNZ-γ as 1:20 or 1:60 dilution of HEK293T supernatant, 2 days.
Description: as §1, §2, §3

A further experiment concerns IL-2. Briefly: CTLL-2 proliferation assay (3H-thymidine), IL-2. The experiment is classed as cell-based. As to conditions: CTLL-2 cells, 50 pM IL-2, BNZ-γ 0.1, 1, 10 µM, 20 hours, 3H-thymidine (FIG. 3B). As to the method:
In a similar assay, the murine cell line CTTL2 was used. In this assay the cells were cultured with 0.5 nM of recombinant IL-2 in RPMI 10% fetal Calf Serum. To set up the proliferation assay, cells were washed from the cytokines 3 times. Cells were seeded at 1 × 10(5) cells per well of a 96-well plate with final concentration of 50 pM of IL-2 or IL-15. Various concentration of BNZ-γ peptide (0.1, 1, and 10 µM) was added to each well. Cells were cultured for 20 hours and in the last 4 hours, ^3H-thymidine was added to the plates. Cells were harvested and radioactivity measured to determine cell proliferation levels.
Inhibition of γc-cytokine-induced proliferation of an indicator cell population by antagonist custom derivative peptides is measured by the 3H-thymidine incorporation assay. Briefly, radiolabeled thymidine (1 microCi) is given to 20-50,000 cells undergoing proliferation in the presence of cytokines. The cell-incorporated radioactivity is measured by trapping cell-bound radioactivity to a glass-fiber filter using a conventional harvester machines (Example, Filtermate Universal Harvester from Perkin-Elmer), after which the radioactivity is measured using a b-counter (Example 1450, Trilux microplate scintillation counter).

Another experiment relates to IL-9. Briefly: PT-18β proliferation assay (WST-1), IL-9. As to conditions: PT-18β cells, 1 nM cytokine, BNZ-γ as 1:20 or 1:60 dilution of HEK293T supernatant, 2 days. The experiment is classed as cell-based.
Description: as §1, §2, §3

Consider “I-K-E-F-L-Q-R-F-I-H-I-V-Q-S-I-I-N-T-S (IKEFLQRFIHIVQSIINTS) [BNZ-γ]”, for which the “tyrosine phosphorylation of STAT5 induced by IL-15” value in the experiment on STAT5 is given as “markedly reduced”. Moreover, the “pro-inflammatory cytokine plasma levels” value in experiment [1] is “drastically reduced”. In addition, in experiment [1] (2 mg/kg), the “course of IL-6 plasma level over the measurement period” value was “clear incremental decreases”, the “course of TNF-α plasma level over the measurement period” value is “clear incremental decreases”, the “drop in IFN-γ plasma level versus PBS vehicle control” value is listed as 4.5 fold and the “drop in IL-6 plasma level versus PBS vehicle control” value is recorded as 6 fold. For the same substance, in experiment [1] (2 mg/kg), the “drop in MCP-1 plasma level versus PBS vehicle control” value came to 7.5 fold and the “drop in TNF-α plasma level versus PBS vehicle control” value is 7 fold. Moreover, the “growth-promoting activity of IL-3 (a non γc-cytokine)” value in the experiment with IL-3 is listed as “not inhibited”. In experiment [2], the “protection from cytokine storm-induced mortality” value was 100% and the “survival over the 5-week study period” value is listed as “survived the 5-week study period”. In addition, in the experiment on IL-15, the “growth-promoting activity of IL-15” value is reported as “significantly (p<0.01 Student’s T test) reduced”. Also, the “cellular proliferation stimulated by IL-4” value in the experiment on IL-4 is “not affected”. In addition, the “IL-2 induced cellular proliferation” value in the experiment on IL-2 is reported as “suppresses”. Further, in the experiment on IL-9, the “growth-promoting activity of IL-9” value is reported as “significantly (p<0.01 Student’s T test) reduced”.
